In ChEMBL document CHEMBL5247602, “Developing a Naïve Bayesian Classification Model with PI3Kγ structural features for virtual screening against PI3Kγ: Combining molecular docking and pharmacophore based on multiple PI3Kγ conformations” (Eur J Med Chem, 2022):

Legend:
[1] = target: T1, Phosphatidylinositol 4,5-bisphosphate 3-kinase catalytic subunit gamma isoform (Homo sapiens, UniProt P48736); experiment: Inhibition of PI3Kgamma (unknown origin) at 10 uM preincubated for 10 mins followed by ATP addition and measured after 60 mins by ADP-Glo assay relative to control; details: time 70.0 min
Target sequence in this assay (P48736 whole entry, looked up, canonical isoform): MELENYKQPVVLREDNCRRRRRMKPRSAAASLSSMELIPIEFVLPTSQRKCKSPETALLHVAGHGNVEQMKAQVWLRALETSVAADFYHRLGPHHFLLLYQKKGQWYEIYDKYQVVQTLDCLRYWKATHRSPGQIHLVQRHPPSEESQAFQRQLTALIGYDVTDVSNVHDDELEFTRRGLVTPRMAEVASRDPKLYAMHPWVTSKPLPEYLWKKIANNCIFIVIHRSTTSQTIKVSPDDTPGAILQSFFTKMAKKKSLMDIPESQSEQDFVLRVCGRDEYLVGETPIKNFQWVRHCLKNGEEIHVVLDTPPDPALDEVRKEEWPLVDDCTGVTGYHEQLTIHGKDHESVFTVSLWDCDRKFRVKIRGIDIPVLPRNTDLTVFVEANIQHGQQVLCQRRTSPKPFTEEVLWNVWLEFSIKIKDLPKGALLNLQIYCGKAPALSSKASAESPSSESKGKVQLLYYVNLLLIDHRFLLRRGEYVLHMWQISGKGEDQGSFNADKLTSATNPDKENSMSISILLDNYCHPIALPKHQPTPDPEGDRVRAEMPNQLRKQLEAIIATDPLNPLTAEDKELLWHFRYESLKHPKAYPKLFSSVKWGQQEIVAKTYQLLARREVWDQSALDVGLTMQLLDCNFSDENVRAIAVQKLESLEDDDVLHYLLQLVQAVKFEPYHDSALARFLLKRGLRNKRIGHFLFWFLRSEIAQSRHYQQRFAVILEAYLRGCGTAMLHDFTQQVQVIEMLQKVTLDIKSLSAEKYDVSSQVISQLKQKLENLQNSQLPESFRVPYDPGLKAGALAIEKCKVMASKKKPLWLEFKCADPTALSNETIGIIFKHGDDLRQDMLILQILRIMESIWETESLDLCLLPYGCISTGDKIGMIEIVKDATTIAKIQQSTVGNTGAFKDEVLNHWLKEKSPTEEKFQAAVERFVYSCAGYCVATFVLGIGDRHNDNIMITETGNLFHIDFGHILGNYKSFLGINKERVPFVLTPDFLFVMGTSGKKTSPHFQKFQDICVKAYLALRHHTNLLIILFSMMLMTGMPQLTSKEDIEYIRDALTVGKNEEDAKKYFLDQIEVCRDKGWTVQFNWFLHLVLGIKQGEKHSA

[2] = target: Phosphatidylinositol 4,5-bisphosphate 3-kinase catalytic subunit alpha isoform (Homo sapiens, UniProt P42336); experiment: Inhibition of PI3Kalpha (unknown origin) preincubated for 10 mins followed by ATP addition and measured after 60 mins by ADP-Glo assay
[3] = target: Phosphatidylinositol 4,5-bisphosphate 3-kinase catalytic subunit beta isoform (Homo sapiens, UniProt P42338); experiment: Inhibition of PI3Kbeta (unknown origin) preincubated for 10 mins followed by ATP addition and measured after 60 mins by ADP-Glo assay
RAW264.7 [4] = experiment: Inhibition of PI3K/AKT signalling pathway in mouse RAW264.7 cells assessed as reduction in LPS-stimulated phosphorylation of AKT at Ser473 residue at 5 to 20 uM preincubated with compound followed by LPS stimulation for 6 hrs by Western blot analysis; format: cell-based; details: dose 5-20 µM, TDE = time-dependent effect
[5] = target: T2, Phosphatidylinositol 4,5-bisphosphate 3-kinase catalytic subunit delta isoform (Homo sapiens, UniProt O00329); experiment: Inhibition of PI3Kdelta (unknown origin) preincubated for 10 mins followed by ATP addition and measured after 60 mins by ADP-Glo assay
T2 sequence (O00329 whole entry): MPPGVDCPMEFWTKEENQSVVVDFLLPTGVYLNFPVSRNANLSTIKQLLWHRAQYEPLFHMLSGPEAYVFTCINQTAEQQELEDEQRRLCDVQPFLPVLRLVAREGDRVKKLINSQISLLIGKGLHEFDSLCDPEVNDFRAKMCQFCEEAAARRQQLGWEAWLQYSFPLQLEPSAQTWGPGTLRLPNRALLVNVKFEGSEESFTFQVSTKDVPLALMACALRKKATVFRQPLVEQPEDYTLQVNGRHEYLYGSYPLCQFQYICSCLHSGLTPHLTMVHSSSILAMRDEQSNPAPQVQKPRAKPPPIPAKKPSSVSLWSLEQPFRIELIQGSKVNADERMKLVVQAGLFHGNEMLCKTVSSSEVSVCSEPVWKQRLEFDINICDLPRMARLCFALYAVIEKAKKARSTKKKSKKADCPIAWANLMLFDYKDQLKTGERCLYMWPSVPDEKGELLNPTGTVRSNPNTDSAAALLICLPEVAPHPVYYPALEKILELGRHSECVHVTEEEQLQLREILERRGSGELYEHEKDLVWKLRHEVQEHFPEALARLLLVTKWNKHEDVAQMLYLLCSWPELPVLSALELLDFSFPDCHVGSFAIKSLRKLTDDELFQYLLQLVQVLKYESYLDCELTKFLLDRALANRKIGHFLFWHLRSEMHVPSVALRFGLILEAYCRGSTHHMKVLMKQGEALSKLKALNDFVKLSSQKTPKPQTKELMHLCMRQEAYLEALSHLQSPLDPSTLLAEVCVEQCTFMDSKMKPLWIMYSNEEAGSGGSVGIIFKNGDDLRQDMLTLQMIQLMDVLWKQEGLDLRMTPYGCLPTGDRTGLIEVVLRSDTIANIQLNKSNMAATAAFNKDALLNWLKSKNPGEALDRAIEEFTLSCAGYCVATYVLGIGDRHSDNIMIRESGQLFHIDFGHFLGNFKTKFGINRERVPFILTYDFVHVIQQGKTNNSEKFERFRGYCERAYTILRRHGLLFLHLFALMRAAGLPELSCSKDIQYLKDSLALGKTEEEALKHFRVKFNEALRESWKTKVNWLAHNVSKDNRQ

RAW264.7 [6] = experiment: Inhibition of PI3K/AKT signalling pathway in mouse RAW264.7 cells assessed as reduction in LPS-stimulated phosphorylation of AKT at Ser473 residue preincubated for 6 hrs followed by LPS stimulation for 6 hrs by Western blot analysis; format: cell-based; details: dose 5-20 µM, time 12.0 hrs
[7] = target: Phosphatidylinositol 4,5-bisphosphate 3-kinase catalytic subunit gamma isoform (Mus musculus) (UniProt Q9JHG7); experiment: Inhibition of PI3Kgamma in mouse RAW264 cells assessed as reduction in LPS-stimulated IL-6 mRNA expression preincubated for 6 hrs followed by LPS addition and measured after 24 hrs by RT-PCR analysis; format: cell-based; details: RAW264.7, dose 1.2-10 µM, time 30.0 hrs
[8] = target: Phosphatidylinositol 4,5-bisphosphate 3-kinase catalytic subunit gamma isoform (Mus musculus) (UniProt Q9JHG7); experiment: Inhibition of PI3Kgamma in mouse RAW264 cells assessed as reduction in LPS-stimulated TNFalpha mRNA expression preincubated for 6 hrs followed by LPS addition and measured after 24 hrs by RT-PCR analysis; format: cell-based; details: RAW264.7, dose 1.2-10 µM, time 30.0 hrs
[9] = target: T1, Phosphatidylinositol 4,5-bisphosphate 3-kinase catalytic subunit gamma isoform; experiment: Inhibition of PI3Kgamma (unknown origin) preincubated for 10 mins followed by ATP addition and measured after 60 mins by ADP-Glo assay
Target sequence in this assay (P48736 whole entry, canonical isoform): as the sequence (P48736 whole entry, looked up, canonical isoform) above

Sequence of Phosphatidylinositol 4,5-bisphosphate 3-kinase catalytic subunit gamma isoform (Mus musculus) (Q9JHG7 whole entry, looked up, canonical isoform): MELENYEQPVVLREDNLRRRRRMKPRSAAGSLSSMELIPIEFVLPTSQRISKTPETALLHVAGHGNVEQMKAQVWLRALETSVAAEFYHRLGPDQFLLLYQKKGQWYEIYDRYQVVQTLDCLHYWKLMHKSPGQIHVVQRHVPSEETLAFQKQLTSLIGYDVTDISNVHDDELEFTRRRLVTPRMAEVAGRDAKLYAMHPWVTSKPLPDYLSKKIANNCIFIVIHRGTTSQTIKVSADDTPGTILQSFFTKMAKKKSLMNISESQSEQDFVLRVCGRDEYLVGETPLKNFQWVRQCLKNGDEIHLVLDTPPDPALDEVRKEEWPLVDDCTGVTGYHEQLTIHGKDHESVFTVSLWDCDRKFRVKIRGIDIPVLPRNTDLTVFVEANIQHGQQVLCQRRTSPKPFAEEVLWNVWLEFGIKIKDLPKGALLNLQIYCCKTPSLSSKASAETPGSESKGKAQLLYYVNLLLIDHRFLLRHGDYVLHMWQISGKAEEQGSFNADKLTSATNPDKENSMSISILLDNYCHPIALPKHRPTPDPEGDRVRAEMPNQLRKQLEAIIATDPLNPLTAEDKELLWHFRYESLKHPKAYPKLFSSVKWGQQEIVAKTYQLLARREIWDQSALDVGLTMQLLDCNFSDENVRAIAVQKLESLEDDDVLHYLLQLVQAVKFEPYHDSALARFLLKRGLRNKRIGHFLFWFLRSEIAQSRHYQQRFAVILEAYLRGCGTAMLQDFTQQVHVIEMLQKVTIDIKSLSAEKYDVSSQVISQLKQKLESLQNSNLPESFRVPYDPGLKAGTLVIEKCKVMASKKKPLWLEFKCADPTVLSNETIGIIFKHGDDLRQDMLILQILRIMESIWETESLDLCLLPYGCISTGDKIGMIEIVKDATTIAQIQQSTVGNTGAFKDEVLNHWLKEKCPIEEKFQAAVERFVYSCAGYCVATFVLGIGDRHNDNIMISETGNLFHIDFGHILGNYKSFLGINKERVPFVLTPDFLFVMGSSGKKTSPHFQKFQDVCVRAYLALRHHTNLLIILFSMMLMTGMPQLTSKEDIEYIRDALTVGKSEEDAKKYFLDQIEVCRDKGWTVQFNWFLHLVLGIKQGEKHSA
Sequence of Phosphatidylinositol 4,5-bisphosphate 3-kinase catalytic subunit beta isoform (P42338 whole entry, canonical isoform): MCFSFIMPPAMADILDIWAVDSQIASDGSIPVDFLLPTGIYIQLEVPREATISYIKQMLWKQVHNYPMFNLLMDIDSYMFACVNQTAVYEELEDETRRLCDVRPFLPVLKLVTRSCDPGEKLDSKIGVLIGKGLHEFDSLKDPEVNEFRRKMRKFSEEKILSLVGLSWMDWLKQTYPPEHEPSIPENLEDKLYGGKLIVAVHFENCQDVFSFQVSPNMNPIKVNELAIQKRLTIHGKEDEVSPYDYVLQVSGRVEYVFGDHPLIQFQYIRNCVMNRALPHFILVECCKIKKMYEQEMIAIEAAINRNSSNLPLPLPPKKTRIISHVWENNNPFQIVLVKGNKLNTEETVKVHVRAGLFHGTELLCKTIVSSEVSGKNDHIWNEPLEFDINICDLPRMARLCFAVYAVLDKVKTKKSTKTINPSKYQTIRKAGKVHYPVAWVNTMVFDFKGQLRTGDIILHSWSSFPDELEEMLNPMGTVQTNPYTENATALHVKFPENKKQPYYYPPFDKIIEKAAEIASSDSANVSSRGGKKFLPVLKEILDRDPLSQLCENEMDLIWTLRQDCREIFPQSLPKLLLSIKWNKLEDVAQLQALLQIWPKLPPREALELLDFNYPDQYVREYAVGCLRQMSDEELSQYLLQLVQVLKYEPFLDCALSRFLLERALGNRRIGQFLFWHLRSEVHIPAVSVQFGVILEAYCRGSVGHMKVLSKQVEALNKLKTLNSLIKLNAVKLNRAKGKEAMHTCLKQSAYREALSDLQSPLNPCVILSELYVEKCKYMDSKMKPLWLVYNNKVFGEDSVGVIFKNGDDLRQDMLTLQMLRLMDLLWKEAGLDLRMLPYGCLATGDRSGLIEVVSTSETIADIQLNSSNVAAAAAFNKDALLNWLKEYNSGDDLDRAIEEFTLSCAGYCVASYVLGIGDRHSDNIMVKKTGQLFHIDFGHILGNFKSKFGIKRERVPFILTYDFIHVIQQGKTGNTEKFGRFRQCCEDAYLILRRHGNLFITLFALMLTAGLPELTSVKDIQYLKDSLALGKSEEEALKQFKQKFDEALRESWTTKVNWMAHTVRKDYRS
Sequence of Phosphatidylinositol 4,5-bisphosphate 3-kinase catalytic subunit alpha isoform (P42336 whole entry, canonical isoform): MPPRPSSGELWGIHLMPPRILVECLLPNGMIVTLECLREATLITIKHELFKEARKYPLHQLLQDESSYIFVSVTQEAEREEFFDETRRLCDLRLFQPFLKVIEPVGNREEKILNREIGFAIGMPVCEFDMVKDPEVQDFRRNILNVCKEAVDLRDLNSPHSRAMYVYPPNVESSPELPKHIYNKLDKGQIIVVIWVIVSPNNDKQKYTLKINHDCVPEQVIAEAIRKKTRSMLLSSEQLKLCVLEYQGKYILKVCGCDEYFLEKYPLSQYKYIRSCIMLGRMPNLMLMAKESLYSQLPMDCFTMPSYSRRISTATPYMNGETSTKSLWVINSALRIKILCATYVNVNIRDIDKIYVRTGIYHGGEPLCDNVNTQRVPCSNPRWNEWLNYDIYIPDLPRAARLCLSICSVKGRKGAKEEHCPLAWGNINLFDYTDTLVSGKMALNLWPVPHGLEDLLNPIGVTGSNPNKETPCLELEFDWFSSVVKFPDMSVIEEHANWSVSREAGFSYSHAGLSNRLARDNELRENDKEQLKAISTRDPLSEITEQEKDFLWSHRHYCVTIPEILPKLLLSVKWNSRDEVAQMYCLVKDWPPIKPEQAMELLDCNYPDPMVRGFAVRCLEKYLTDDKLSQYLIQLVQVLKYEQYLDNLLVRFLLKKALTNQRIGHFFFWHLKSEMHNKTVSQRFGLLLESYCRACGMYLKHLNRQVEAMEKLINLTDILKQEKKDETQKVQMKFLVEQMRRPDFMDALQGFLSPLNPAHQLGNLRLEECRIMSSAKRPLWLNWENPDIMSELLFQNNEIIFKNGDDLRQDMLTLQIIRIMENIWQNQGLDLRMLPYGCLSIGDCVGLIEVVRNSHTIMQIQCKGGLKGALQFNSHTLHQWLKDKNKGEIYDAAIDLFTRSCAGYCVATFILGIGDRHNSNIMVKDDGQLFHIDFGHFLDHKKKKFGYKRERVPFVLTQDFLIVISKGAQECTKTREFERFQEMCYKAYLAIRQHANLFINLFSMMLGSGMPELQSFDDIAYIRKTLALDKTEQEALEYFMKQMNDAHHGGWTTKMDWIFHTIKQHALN

inhibition [1] | IC50 [2] | IC50 [3] | IC50 [5] | inhibition [7] | inhibition [8] | IC50 [9] | Structure (SMILES) | inhibition (RAW264.7 [4]) | inhibition (RAW264.7 [6])
80% | 5.64 µM | 5.02 µM | 11.7 µM | Dose-Dependent Effect | Dose-Dependent Effect | 2.45 µM | Cn1c(=O)n(C)c2ccc3ccc4ccc1c2c43 | Tde | Dose-Dependent Effect
55% | – | – | – | – | – | 17.5 µM | Cn1c(=O)c2cc(S(N)(=O)=O)ccc2n(C)c1=O | – | –
40% | – | – | – | – | – | 15.9 µM | Cn1c(=O)c2cc(S(=O)(=O)NC3CC3)ccc2n(C)c1=O | – | –
